Marks after values point to notes of the source that are not given here.
What was measured:
[1] = tested on: SP-SHR rats (Stroke-Prone Spontaneously Hypertension Rats); assay: Mortality/survival in SP-SHR rats under chronic treatment for 16 weeks; format: in vivo; settings: controls 0
Text: Evaluation of the Mortality in SP-SHR Rats (Stroke-Prone Spontaneously Hypertension Rats) Treated With 2-acetyloxybenzoic acid (6-nitrooxymethyl)-2-methylpyridinyl hydrochloride ester (Formula XV), (NO-ASA) and Aspirin.
In this experiment SP-SHR rats were used which develop a severe hypertension, with a high incidence of spontaneous cerebral infarct. […] (Yamori Y. et al. Stroke 1976; 7: 46-53).
Three groups each formed by 12 SP-SHR rats, 8 weeks old at the beginning of the experiment, received for 16 weeks together with the daily diet Aspirin (54 mg/kg) NO-ASA (30 mg/kg); the control group received only the diet.
During the period of chronic treatment the percentage of animal survival was evaluated.

[2] = tested on: oxidized LDL in the vascular wall; assay: Vascular damage in carotids: oxidized LDL in the vascular wall (MDA2 antibody immunohistochemistry); format: in vivo, SP-SHR rats; settings: control = 0
Experimental: Evaluation of the Vascular Damage in Animals Treated With NO-ASA and Aspirin
In this experiment SP-SHR rats were used, as in the previous Example.
Three groups, each formed by 12 SP-SHR rats, 8 weeks old at the beginning of the experiment, received respectively for 6 weeks, together with the daily diet Aspirin (54 mg/kg) NO-ASA (30 mg/kg) (two groups); the control group (third group) received only the diet.
At the end of the treatment the animals were sacrificed by decapitation and the carotids were isolated. The ducts were opened and washed with cold sterile buffer phosphate (PBS) containing EDTA (2 mM) and maintained in cold PBS (cooled in ice bath) containing 2, [6]-di-tert-butyl-p-cresol (50 μM), aprotin (0.001%), EDTA (50 mM) and chloramphenicol (0.008%). The arteries were fixed with formalin (10%), then soaked in paraffin and then dissected. An aliquot of the obtained sections was incubated with MDA2 antibodies, which are directed against specific epitopes for oxidized LDL.
The data were calculated by considering the number of the sections, positive at the immunohistochemical test with MDA2 antibodies, detected in the groups of the treated animals and in the control group, respectively. The results are expressed as percentage of reduction of the oxidized LDL (low density lipoprotein) presence in the vascular wall taking as 0 the LDL value measured in the control group.

[3] = tested on: gastric mucosa; assay: Damages to the gastric mucosa (lesion score) in the rats of the restenosis model; format: in vivo, Male Wistar rats; settings: for Gastric damage Score: control score 2
Experimental: (§1) The rats were divided in the indicated groups (n. 12 animals each) and subjected to pharmacological treatment as described hereunder for the 14 days following the vascular damage. The compounds, dissolved in polyethylenglycol (PEG 400) were administered by os by gastric probe according to the following scheme:
(§2) The animals were sacrificed and the carotids removed. For each artery n. 6 sections having a thickness of 6 μm were isolated. Stomachs were removed and inspected for damages of the gastric mucosa, determining the areas of both bleeding lesions and non bleeding lesions. Said lesions were evaluated by a score according to known methods.

[4] = tested on: restenosis experimentally caused by balloon angioplasty; assay: Restenosis induced in rats by balloon angioplasty (neointima/middle tunica thickness ratio); format: in vivo, Male Wistar rats; settings: for Restenosis %: 14 days after vascular damage, control = 100; for formation of the neointima tunica in the vascular wall / restenosis (in words): summary of Table 1, NO-aspirin low doses, Aspirin high doses
Experimental: Efficacy of Aspirin and of 2-acetyloxybenzoic acid (3-nitrooxymethyl)phenyl ester (Formula XI), in an Experimental Model of Restenosis Induced in Rats
Male Wistar rats weighing 300-350 g were anaesthetized by intraperitoneal injection of ketamine (100 mg/kg) and xylazine (5 mg/kg) and subjected to angioplasty according to the procedure described by Indolfi et Al., Circulation, 1995, 92, 1230-1235, by using a little balloon catheter which was first introduced in the aortic arch through the right carotid, then swollen and then let pass three times forth and back in the duct lumen.
as §1
2 groups received NO-Aspirin at the dose of 30 and 100 mg/kg, respectively,
2 groups received Aspirin at the dose of 16 and 54 mg/kg, respectively,
1 group received NO-Ketorolac at the dose of 10 mg/Kg,
1 group received Ketorolac at the dose of 5 mg/Kg,
the control group received only the carrier (PEG 400, 0.2 ml/rat).
At the end of the treatment the animals were anaesthetized as described above and the carotids were first washed by infusion, through the left ventricle, of saline buffer phosphate (PBS, pH 7,2, 100 ml) then fixed with PBS containing paraformaldehyde (4%).
as §2
3 of the 6 sections of each artery were stained with hematoxylin and eosin to evidence different types of cells, the remaining 3 sections were stained first with aldehyde fuchsin and then with the Gieson solution to evidence the internal elastic lamina (IEL). The sections were photographed and the imagines were analyzed by an image analysis system (Qwin Lite, Leica, Milan).
The thicknesses respectively of the middle and neointima tunica, and of the duct wall were measured. The results reported in Table 1 are expressed as percentage of restenosis and have been calculated as a ratio between the thickness of the neointima tunica and that of the middle tunica […] measured in the sections obtained from the groups, assuming equal to 100 the N/M ratio of the control group.

[5] = 54 mg/kg/die with the daily diet
[6] = 30 mg/kg/die with the daily diet

SMILES: CC(=O)Oc1ccccc1C(=O)O [Aspirin, aspirin]
- % of survival, XVIth week [1, 5]: 50%
- % of survival, Xth week [1, 5]: 100%
- reduction % of the presence of oxidized LDL ([2]; 54 mg/kg with the daily diet for 6 weeks): 19%
- Gastric damage Score ([3]; Dose 50 mg/Kg): 22*
- Gastric damage Score ([3]; Dose 100 mg/Kg): 42*
- gastric toxicity / lesions to the gastric mucosa (in words) ([3]; rat, in vivo): produce lesions to the gastric mucosa
- Restenosis % ([4]; 16 mg/Kg by os): 100%
- Restenosis % ([4]; 54 mg/Kg by os): 55* %
- formation of the neointima tunica in the vascular wall / restenosis (in words) [4]: small reduction of the restenosis

SMILES: O=C(c1ccccc1)c1ccc2n1CCC2C(=O)O (centres unmarked) [Ketorolac, ketorolac]
- Gastric damage Score ([3]; Dose 5 mg/Kg): 50
- Restenosis % ([4]; 5 mg/Kg by os): 100%

SMILES: O=C(c1ccccc1)c1ccc2n1CCC2C(=O)OCCCCO[N+](=O)[O-] (centres unmarked) [NO Ketorolac, 5-benzoyl-2,3-dihydro-1H-pyrrolizin-1-carboxylic acid (4-nitrooxy)butyl ester]
- Gastric damage Score ([3]; Dose 10 mg/Kg): 20
- gastric toxicity / lesions to the gastric mucosa (in words) ([3]; summary of Table 1, Aspirin high doses): shows a gastric toxicity
- Restenosis % ([4]; 10 mg/Kg by os): 90%
- formation of the neointima tunica in the vascular wall / restenosis (in words) [4]: not very effective

SMILES: CC(=O)Oc1ccccc1C(=O)OCc1cccc(CO[N+](=O)[O-])n1.Cl [NO-ASA, 2-(acetyloxy)benzoic acid, 6-(nitrooxymethyl)-2-methyl pyridinyl hydrochloride ester]
- % of survival, XVIth week [1, 6]: 100%
- % of survival, Xth week [1, 6]: 100%
- reduction % of the presence of oxidized LDL ([2]; 30 mg/kg with the daily diet for 6 weeks): 74%

SMILES: CC(=O)Oc1ccccc1C(=O)Oc1cccc(CO[N+](=O)[O-])c1 [NO-Aspirin, 2-(acetyloxy)benzoic acid 3-(nitrooxymethyl)phenyl ester]
- Gastric damage Score ([3]; Dose 166 mg/Kg): 2
- Gastric damage Score ([3]; Dose 249 mg/Kg): 4
- Restenosis % ([4]; 30 mg/Kg by os): 62.5* %
- Restenosis % ([4]; 100 mg/Kg by os): 31* %
- formation of the neointima tunica in the vascular wall / restenosis (in words) [4]: already significantly reduced
